The source of these data is publication PMC6218569, “Structural and Functional Characterization of PA14/Flo5-Like Adhesins From Komagataella pastoris” (Frontiers in Microbiology, 2018).

The target of experiment [1] is T1, Cea1A (=KpFlo1A) (Komagataella pastoris, UniProt A0A1B2J5V1).
T1 construct: gene ATY40_BA7500007; A domain, D78-E296, N-terminally His6-tagged
In words: weak binding KD (Supplementary Figure S6), validated by fluorescence titration.

For experiment [2], the target named is T1, Cea1A (=KpFlo1A). As to the kind of experiment: ITC and co-crystal structure ([…] Å). The class given is binding. As to conditions: read-out: Cea1A•N,N′-diacetylchitobiose.
Experiment [3] addresses T1, Cea1A (=KpFlo1A). In words: ITC and co-crystal structure ([…] Å). The format is binding.

T1 sequence (A0A1B2J5V1 entry or part of it): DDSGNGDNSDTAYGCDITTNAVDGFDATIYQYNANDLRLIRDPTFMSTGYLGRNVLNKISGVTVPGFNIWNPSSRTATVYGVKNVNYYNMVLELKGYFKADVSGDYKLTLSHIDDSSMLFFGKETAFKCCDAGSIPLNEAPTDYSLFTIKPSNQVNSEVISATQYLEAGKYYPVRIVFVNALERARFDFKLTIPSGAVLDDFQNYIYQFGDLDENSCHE

Turning to `OC[C@H]1OC(O)[C@H](O)[C@@H](O)[C@@H]1O` (stereo partly drawn) [glucose], the Kd at Cea1A (=KpFlo1A) [1] is 2380 µM.

On to `CC(=O)N[C@H]1[C@H](O[C@H]2[C@H](O)[C@@H](NC(C)=O)C(O)O[C@@H]2CO)O[C@H](CO)[C@@H](O)[C@@H]1O` (stereo partly drawn) [N,N′-diacetylchitobiose], for which the Kd on Cea1A (=KpFlo1A) [2] was determined as 13.1 ± 3.56 µM.

`CC(=O)N[C@@H]1[C@@H](O)[C@H](O)[C@@H](CO)O[C@H]1O` [GlcNAc]: the Kd on Cea1A (=KpFlo1A) [3] is 7.67 ± 0.49 µM.
